# Literature values in patent publication US20050255458A1, “Drug discovery assays based on the biology of chronic disease” (priority 2002, published 2005).
# Read-outs that look alike come from different tables or passages of the source. Where a SMILES comes first, the peptide text is derived from it. [ ]: non-standard residue; d: D form. Aoe = N[C@@H](CCCCCC(=O)[C@@H]1CO1)C(=O)O
# Assays:
# anagen hair follicles = details: cited from earlier work; for scalp hair growth: Philpott 1996
# TF = details: cited from earlier work; for effect on Cu^+2 induced procoagulant activity: probucol 20, vitamin E 50, BHT 50, U74389G 20 μmol/L
# AR gene = details: cited from earlier work
# Rb = details: cited from earlier work; for increase in Rb mRNA: MEL cells, maximum on day three of induction
# ERK1/2 = details: cited studies, various cells; cited from earlier work
# ERK [1] = details: cited from earlier work
# ACE [2] = target: T1, ACE (Oryctolagus cuniculus, UniProt P12822); details: cited from earlier work
# T1 construct: from tissue; host or cells: whole animal, in vivo (Watanabe rabbit)
# T1 sequence (P12822 34-1310): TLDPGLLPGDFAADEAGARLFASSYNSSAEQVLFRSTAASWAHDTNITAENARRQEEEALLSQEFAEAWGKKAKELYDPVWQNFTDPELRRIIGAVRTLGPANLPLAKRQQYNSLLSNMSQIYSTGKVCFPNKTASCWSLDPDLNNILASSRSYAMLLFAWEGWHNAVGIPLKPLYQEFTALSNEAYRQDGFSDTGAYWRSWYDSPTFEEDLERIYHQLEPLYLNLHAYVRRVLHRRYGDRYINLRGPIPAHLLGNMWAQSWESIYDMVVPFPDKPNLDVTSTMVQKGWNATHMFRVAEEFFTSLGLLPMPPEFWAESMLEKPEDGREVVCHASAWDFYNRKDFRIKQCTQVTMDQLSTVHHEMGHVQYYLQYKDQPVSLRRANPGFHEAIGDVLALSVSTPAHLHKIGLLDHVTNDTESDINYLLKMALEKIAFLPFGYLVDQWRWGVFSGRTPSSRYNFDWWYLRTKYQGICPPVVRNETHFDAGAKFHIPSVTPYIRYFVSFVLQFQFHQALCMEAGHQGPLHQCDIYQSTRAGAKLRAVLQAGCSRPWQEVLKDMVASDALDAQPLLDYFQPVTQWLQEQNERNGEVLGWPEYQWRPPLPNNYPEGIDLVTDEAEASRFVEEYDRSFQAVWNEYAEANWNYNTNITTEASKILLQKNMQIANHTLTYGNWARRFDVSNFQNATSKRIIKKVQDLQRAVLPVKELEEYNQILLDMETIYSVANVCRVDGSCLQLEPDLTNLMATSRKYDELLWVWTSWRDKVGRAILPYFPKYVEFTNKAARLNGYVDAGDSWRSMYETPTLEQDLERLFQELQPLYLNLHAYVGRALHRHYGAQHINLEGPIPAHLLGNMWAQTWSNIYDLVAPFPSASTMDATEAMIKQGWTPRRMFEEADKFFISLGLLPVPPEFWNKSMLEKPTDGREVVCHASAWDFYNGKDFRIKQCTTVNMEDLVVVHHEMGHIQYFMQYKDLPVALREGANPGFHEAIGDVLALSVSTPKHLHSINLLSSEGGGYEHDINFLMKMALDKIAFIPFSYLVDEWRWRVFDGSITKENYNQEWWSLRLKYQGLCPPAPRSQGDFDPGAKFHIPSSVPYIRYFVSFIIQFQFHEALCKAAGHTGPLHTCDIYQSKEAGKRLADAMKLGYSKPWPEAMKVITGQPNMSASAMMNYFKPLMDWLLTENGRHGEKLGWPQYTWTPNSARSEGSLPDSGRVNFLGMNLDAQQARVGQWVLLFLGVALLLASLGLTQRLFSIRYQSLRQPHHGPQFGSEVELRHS
# ACE [3] = target: T2, ACE (Mus musculus, UniProt P09470); details: cited from earlier work
# T2 sequence (P09470 35-1312): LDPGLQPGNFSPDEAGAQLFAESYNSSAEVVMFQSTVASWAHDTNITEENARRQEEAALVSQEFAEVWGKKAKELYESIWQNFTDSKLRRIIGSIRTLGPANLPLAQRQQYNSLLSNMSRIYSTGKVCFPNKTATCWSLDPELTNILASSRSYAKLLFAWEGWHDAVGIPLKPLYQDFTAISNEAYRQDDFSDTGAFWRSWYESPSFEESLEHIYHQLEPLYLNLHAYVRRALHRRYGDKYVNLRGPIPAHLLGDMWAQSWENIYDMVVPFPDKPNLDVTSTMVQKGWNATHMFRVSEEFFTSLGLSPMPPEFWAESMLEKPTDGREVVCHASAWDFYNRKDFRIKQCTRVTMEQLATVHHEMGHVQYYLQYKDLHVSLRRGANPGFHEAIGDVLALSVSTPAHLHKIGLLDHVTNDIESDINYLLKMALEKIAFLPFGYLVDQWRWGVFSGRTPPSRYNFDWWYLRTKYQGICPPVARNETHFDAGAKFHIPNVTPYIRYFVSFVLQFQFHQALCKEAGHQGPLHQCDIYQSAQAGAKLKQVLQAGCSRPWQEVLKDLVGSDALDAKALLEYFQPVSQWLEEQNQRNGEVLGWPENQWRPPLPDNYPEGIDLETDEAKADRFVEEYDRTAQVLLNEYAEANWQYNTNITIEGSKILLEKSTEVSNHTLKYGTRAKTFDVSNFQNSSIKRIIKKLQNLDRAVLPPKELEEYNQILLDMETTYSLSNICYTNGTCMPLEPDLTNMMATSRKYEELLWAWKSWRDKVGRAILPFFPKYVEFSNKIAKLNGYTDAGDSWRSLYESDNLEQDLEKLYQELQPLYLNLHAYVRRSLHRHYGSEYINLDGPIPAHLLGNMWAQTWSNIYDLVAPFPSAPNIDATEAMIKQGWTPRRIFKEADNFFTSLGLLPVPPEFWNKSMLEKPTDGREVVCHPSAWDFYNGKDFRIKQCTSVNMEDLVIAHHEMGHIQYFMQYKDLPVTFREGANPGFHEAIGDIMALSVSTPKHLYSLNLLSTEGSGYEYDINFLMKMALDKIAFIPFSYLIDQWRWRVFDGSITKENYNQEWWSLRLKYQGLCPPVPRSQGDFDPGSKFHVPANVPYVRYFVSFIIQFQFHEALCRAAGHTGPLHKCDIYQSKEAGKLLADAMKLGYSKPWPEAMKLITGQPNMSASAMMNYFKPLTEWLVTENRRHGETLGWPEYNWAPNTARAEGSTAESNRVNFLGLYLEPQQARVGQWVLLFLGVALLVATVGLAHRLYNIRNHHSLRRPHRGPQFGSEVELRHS
# [4] = tested on: obese (fa/fa) Zucker rats; details: cited from earlier work
# ERK [5] = details: A variety of cell types; cited from earlier work
compound,measurement,setting,value
CNc1ccc2oc(C[C@H]3O[C@@]4(CC[C@H]3C)O[C@H]([C@H](C)C(=O)c3ccc[nH]3)[C@H](C)C[C@H]4C)nc2c1C(=O)O [A 23187],hair growth,"anagen hair follicles; 6 days culture, A 23187 2 μM, TPA 1 μM, IL-1 100 ng per ml (Hoffmann 1997)",significantly inhibited hair growth
Cc1cc(C(C)(C)C)c(O)c(C(C)(C)C)c1 [BHT],effect on Cu^+2 induced procoagulant activity,TF,inhibited the Cu^+2 induced procoagulant activity
[Cu+2] [Cu+2],TF mRNA level,TF; at 2 hours,50%
same,increase of TF mRNA,TF; at 6 hours,3.5 fold
CC(=O)O[C@]1(C(C)=O)CC[C@H]2[C@@H]3C=C(Cl)C4=CC(=O)[C@@H]5C[C@@H]5[C@]4(C)[C@H]3CC[C@@]21C [Cyproterone acetate],Effect on [mRNAAR],AR gene; LNCaP,↓[mRNAAR]
"C[S+](C)[O-] [DMSO, dimethyl sulfoxide]",increase in Rb mRNA,Rb,11 fold
"CC(=O)NCCCCCCNC(C)=O [HMBA, hexamethylene bisacetamide]",cells irreversibly committed to differentiate,"Rb; DS19/Sc9, 48 h of culture",Over 90%
same,increase in Rb transcription,Rb; DS19/Sc9,3.6 fold
same,increase in total pRb,Rb; DS19/Sc9 asynchronous cultures,2-to 3 fold
same,increase in Rb mRNA,Rb,7 fold
C[C@]12C=CC(=O)C=C1CC[C@@H]1C2=CC[C@]2(C)[C@@H](C(=O)CN3CCN(c4cc(N5CCCC5)nc(N5CCCC5)n4)CC3)CC[C@@H]12.O=C(O)/C=C\C(=O)O [U74389G],effect on Cu^+2 induced procoagulant activity,TF,inhibited the Cu^+2 induced procoagulant activity
[Cu] [copper],phosphorylation of ERK1/2,ERK1/2,phosphorylation of ERK1/2
CC[C@H]1CN2CCc3cc(OC)c(OC)cc3[C@@H]2C[C@@H]1C[C@H]1NCCc2cc(OC)c(OC)cc21 [emetine],c-mos expression and ERK phosphorylation,ERK [1]; starfish eggs,inhibition of c-mos expression and ERK phosphorylation
C[C@]12CC[C@@H]3c4ccc(O)cc4CC[C@H]3[C@@H]1CCC2=O [estron],phosphorylation of ERK1/2,ERK1/2,phosphorylation of ERK1/2
CC[C@H](C)[C@@H]1NC(=O)[C@H](Cc2ccc(O)cc2)NC(=O)[C@@H](N)CSSC[C@@H](C(=O)N2CCC[C@H]2C(=O)N[C@@H](CC(C)C)C(=O)NCC(N)=O)NC(=O)[C@H](CC(N)=O)NC(=O)[C@H](CCC(N)=O)NC1=O [oxytocin],phosphorylation of ERK1/2,ERK1/2,phosphorylation of ERK1/2
CC(C)(Sc1cc(C(C)(C)C)c(O)c(C(C)(C)C)c1)Sc1cc(C(C)(C)C)c(O)c(C(C)(C)C)c1 [probucol],effect on Cu^+2 induced procoagulant activity,TF,inhibited the Cu^+2 induced procoagulant activity
C/C=C(/C)C(=O)O[C@H]1C(C)=C2[C@H]([C@@H]1OC(=O)CCCCCCC)[C@@](C)(OC(C)=O)C[C@H](OC(=O)CCC)[C@@]1(O)[C@H]2OC(=O)[C@@]1(C)O [thapsigargin],phosphorylation of ERK1/2,ERK1/2,phosphorylation of ERK1/2
O=C1N[C@@H](Cc2ccccc2)C(=O)N2CCC[C@@H]2C(=O)N[C@@H](CCCCCC(=O)[C@@H]2CO2)C(=O)N[C@H]1Cc1ccccc1 [trapoxin] (cyclo(FF[dP][Aoe])),phosphorylation of ERK1/2,ERK1/2,phosphorylation of ERK1/2
CC(/C=C/C(=O)NO)=C\[C@@H](C)C(=O)c1ccc(N(C)C)cc1 [trichostatin A],phosphorylation of ERK1/2,ERK1/2,phosphorylation of ERK1/2
[Zn] [zinc],phosphorylation of ERK1/2,ERK1/2,phosphorylation of ERK1/2
C[C@H](CSC(=O)c1ccccc1)C(=O)N1C[C@@H](Sc2ccccc2)C[C@H]1C(=O)O [zofenopril],decrease of aortic corrected cumulative lesion area,"ACE [2]; 0.5 mg/kg/day, 6 weeks",34%
same,decrease of common carotid corrected cumulative lesion area,"ACE [2]; 0.5 mg/kg/day, 6 weeks",39%
same,intimal presence of native LDL,ACE [2]; p<0.01 vs placebo,decreased
same,intimal presence of macrophage derived foam cells,ACE [2]; p<0.05 vs placebo,decreased
same,macrophage-derived foam cells staining in the intima,ACE [3]; 1 mg/kg/day,significant decrease in macrophage-derived foam cells staining
same,native LDL staining in the intima,ACE [3]; 1 mg/kg/day,significant decrease in native LDL staining
same,total lesion area compared to placebo,"ACE [3]; zofenopril 0.05 or 1, captopril 5, enalapril 0.5 mg/kg/day, 29 weeks",significantly decreased total lesion area
"IL-β: printed IL-β, presumably IL-1β",scalp hair growth,anagen hair follicles,inhibition of scalp hair growth
TNFα,scalp hair growth,anagen hair follicles,inhibition of scalp hair growth
same,AR transcription in run-on assays,AR gene; LNCaP,No change in run-on
same,Effect on [mRNAAR],AR gene; LNCaP,↓[mRNAAR]
same,decrease of nighttime feeding (12 hours),[4]; 50 ng/rat,13%
same,decrease of short-term feeding (4 hours),[4]; 50 ng/rat,17%
same,decrease of total daily food intake,[4]; 50 ng/rat,11%
same,decrease of nighttime feeding (12 hours),[4]; 100 ng/rat,14%
same,decrease of short-term feeding (4 hours),[4]; 100 ng/rat,20%
same,decrease of total daily food intake,[4]; 100 ng/rat,12%
same,decrease of nighttime feeding (12 hours),[4]; 500 ng/rat,13%
same,decrease of short-term feeding (4 hours),[4]; 500 ng/rat,20%
same,decrease of total daily food intake,[4]; 500 ng/rat,11%
same,Effect on [ERK^phos],ERK [5],↑[ERK^phos]
estrogen,growth of isolated hair follicles,anagen hair follicles; Kondo 1990,growth inhibition
interferon-γ: ERK agent cytokine,phosphorylation of ERK1/2,ERK1/2,phosphorylation of ERK1/2
"interleukin 1β: cytokine, ERK agent",phosphorylation of ERK1/2,ERK1/2,phosphorylation of ERK1/2
"interleukin 6: cytokine, ERK agent",AR mRNA,AR gene; LNCaP (Lin 2001),decreased AR mRNA
same,phosphorylation of ERK1/2,ERK1/2,phosphorylation of ERK1/2
same,ERK phosphorylation,ERK [1]; AF-10 human B cell line,increased ERK phosphorylation
same,ERK phosphorylation,ERK [1]; LNCaP cells,increased ERK phosphorylation
transforming growth factor β,phosphorylation of ERK1/2,ERK1/2,phosphorylation of ERK1/2
tumor necrosis factor α,phosphorylation of ERK1/2,ERK1/2,phosphorylation of ERK1/2
